Read-outs that look alike come from different tables or passages of the source.
Key:
[1] = type: in vivo, broiler chickens
[2] = Population pharmacokinetic analysis; type: in vivo, broiler chickens; settings: for AUC: geometric mean
[3] = type: in vivo, broiler chickens; settings: single ENR administration (i.v. 10 mg/kg or p.o. 20 mg/kg) with or without CsA or AC
[4] = cited from earlier work
[5] = population fixed effect, p.o. administration
[6] = oral administration, same dose (20 mg/kg), ref Xiao et al., 2018

- AUC ([1]; Ross hybrid (Cornish × Plymouth Rock), plasma, po, 20 mg/kg, AUC, enrofloxacin in plasma, enrofloxacin p.o. 20 mg/kg + cyclosporine A p.o. 50 mg/kg, geometric mean (min–max)): 40400 ng·h/mL
- Cmax ([1]; Ross hybrid (Cornish × Plymouth Rock), plasma, po, 20 mg/kg, Cmax, enrofloxacin in plasma, enrofloxacin p.o. 20 mg/kg + cyclosporine A p.o. 50 mg/kg, geometric mean (min–max)): 5620 ng/mL
- Tmax ([1]; Ross hybrid (Cornish × Plymouth Rock), plasma, po, 20 mg/kg, Tmax, enrofloxacin in plasma, enrofloxacin p.o. 20 mg/kg + cyclosporine A p.o. 50 mg/kg, geometric mean (min–max)): 1.35 h
- increase of AUC with CsA co-administration ([1]; enrofloxacin p.o. 20 mg/kg + CsA p.o. versus enrofloxacin p.o. alone): approx. 20%
- AUC ([2]; Ross hybrid (Cornish × Plymouth Rock), plasma, iv, 10 mg/kg, AUCi.v. – activated charcoal, enrofloxacin i.v. 10 mg/kg + activated charcoal p.o. 1 g/kg): 13300 ng·h/mL
- AUC ([2]; Ross hybrid (Cornish × Plymouth Rock), plasma, iv, 10 mg/kg, AUCi.v. – cyclosporine A, enrofloxacin i.v. 10 mg/kg + cyclosporine A p.o. 50 mg/kg): 16200 ng·h/mL
- bioavailability ([2]; Ross hybrid (Cornish × Plymouth Rock), plasma, po, 20 mg/kg): 100%
- AUC ([2]; Ross hybrid (Cornish × Plymouth Rock), plasma, po, 20 mg/kg, AUCp.o. – control, enrofloxacin p.o. 20 mg/kg alone): 31200 ng·h/mL
- AUC ([2]; Ross hybrid (Cornish × Plymouth Rock), plasma, po, 20 mg/kg, AUCp.o. – cyclosporine A, enrofloxacin p.o. 20 mg/kg + cyclosporine A p.o. 50 mg/kg): 37400 ng·h/mL
- lag time (time to pass the crop and the stomach to reach the absorption site) ([2]; p.o. administration, on average): 3.24 min
- βCl BW (covariate effect of body weight on clearance) ([2]; population fixed effect, log-normalized BW): 0.77
- tvTlag (typical value of lag time) [2, 5]: 0.054 h
- tvka (typical value of absorption rate constant) [2, 5]: 1.26 h⁻¹
Structure (SMILES): CCN1CCN(c2cc3c(cc2F)c(=O)c(C(=O)O)cn3C2CC2)CC1 [Enrofloxacin, enrofloxacin]
- adverse effects [3]: No adverse effects were observed
- oral bioavailability change with verapamil co-administration ([4]; co-administered with the P-gp inhibitor verapamil, ref Guo et al., 2013): nearly doubled
- AUC ([4]; i.v. administration at 10 mg/kg, ref Atef et al., 2020): 15200 ± 1080 ng·h/mL
- AUC0-24h [4, 6]: 30.07 ± 4.64 µg/h/mL
- Cmax [4, 6]: 2860 ± 520 ng/mL

— article PMC9646970 (Poultry Science, 2022)
